Results on ten compounds are retold here after patent publication US9212177B2, “Antiviral compounds and methods of making and using thereof” (Versitech Limited, priority 2009, dated 2015).

The subject of one data set is MDCK cells. Put plainly: MTT cytotoxicity assay in MDCK cells. Format: cell-based, canine. Conditions: 24 hours incubation, concentrations tested 0 to 250 μM, read-out: TC50 in MDCK cells. The protocol: (§1) Cytotoxicity of Compounds 1-10 was measured by the 3-(4,5-dimethylthiazol-2-yl)-2,5-diphenyltetrazolium bromide (MTT, Sigma-Aldrich, USA) assay. The assay was performed by seeding Vero cells or MDCK cells at 20,000 cells/well in a total volume of 100 μl EMEM with 10% FBS in flat bottomed 96-well microtitre plates. After 24 hours of incubation, cells were washed twice with PBS and then replenished with fresh EMEM before the addition of the compounds. After the addition of the compounds, the cells were further incubated at 37° C. with 5% CO2 for 24 hours. MTT was added to each well to a final concentration of 0.5 mg/ml. The plates were further incubated at 37° C. with 5% CO2 for 4 hours. At the end of the incubation period, 100 μl of 10% of lauryl sulfate (SDS) in 0.01M of hydrochloric acid (HCl) was added to each well to solubilize the cells. After overnight incubation, the plates were read at 570 nm with 640 nm as the reference wavelength. The median toxic concentration, TC50, which represents the concentration of a compound required to reduce the MTT reading by 50%, was estimated from the MTT data.
Background: Formazan colour is commonly taken as a measure of viable cells.

The subject of another data set is Vero cells. As to the kind of experiment: MTT cytotoxicity assay in Vero cells. Format: cell-based. To be noted: 24 hours incubation, concentrations tested 0 to 250 μM, read-out: TC50 in Vero cells. The protocol: as §1
Another data set relates to Influenza A H1N1\WSN\33. As to the kind of experiment: microbe, parasite or virus in culture. Format: cell-based, Influenza A virus. To be noted: for EC50: read-out: EC50 by PRA.
Data set [1] can be described thus: MTT cytotoxicity assay in MDCK cells. Format: cell-based, canine. To be noted: dog, MDCK cells, 24 hours incubation, concentrations tested 0 to 250 μM, read-out: TC50 in MDCK cells. The protocol: as §1
Data set [2] is described as follows: MTT cytotoxicity assay in Vero cells. Format: cell-based. Conditions: African green monkey, Vero cells, 24 hours incubation, concentrations tested 0 to 250 μM, read-out: TC50 in Vero cells. The protocol: as §1

The structures appear in SMILES notation. Read-outs that look alike come from different tables or passages of the source.

The EC50 is the concentration needed to bring the measured effect to its halfway point. Turning to `Cc1onc(-c2ccc(O)cc2)c1C(=O)N1CCN(c2ccc([N+](=O)[O-])cc2Cl)CC1` [Compound 1, [4-(2-chloro-4-nitro-pheny1)-piperazin-1-yl]-[3-(4-hydroxy-pheny1)-5-methylisoxazol-4-yl]-methanone], the CC50 in the data set with MDCK cells and with Vero cells was over 250 µM throughout. Further, in the data set on Influenza A H1N1\WSN\33, the EC50 is 0.05 µM.
In the case of `Cc1onc(-c2ccccc2)c1C(=O)N1CCN(c2ccc([N+](=O)[O-])cc2Cl)CC1` [Compound 2, [4-(2-chloro-4-nitro-phenyl)-piperazin-1-yl]-[3-phenyl-5-methyl-isoxazol-4-yl]-methanone], the CC50 at 24 h in data set [1] and in data set [2] was over 250 µM throughout. Moreover, in the data set on Influenza A H1N1\WSN\33, the “Selective Index (SI)” value is given as over 4167. Besides, the EC50 with Influenza A H1N1\WSN\33 (Influenza A virus, MDCK, 72 h) was found to be 0.06 µM.
On to `Cc1onc(-c2ccc(N)cc2)c1C(=O)N1CCN(c2ccc([N+](=O)[O-])cc2Cl)CC1` [Compound 3, [4-(2-chloro-4-nitro-phenyl)-piperazin-1-yl]-[3-(4-amino-phenyl)-methylisoxazol-4-yl]-methanone], for which the CC50 at 24 h in data set [1] and in data set [2] was over 250 µM each time. In addition, in the data set with Influenza A H1N1\WSN\33, the “Selective Index (SI)” value was over 4464.
Regarding `Cc1onc(-c2ccc(N=[N+]=[N-])cc2)c1C(=O)N1CCN(c2ccc([N+](=O)[O-])cc2Cl)CC1` [Compound 4, [4-(2-chloro-4-nitro-pheny1)-piperazin-1-yl]-[3-(4-azido-pheny1)-5-methylisoxazol-4-yl]-methanone], the CC50 in the data set with MDCK cells and in the data set on Vero cells was over 250 µM throughout. Also, the EC50 in the data set on Influenza A H1N1\WSN\33 came to 0.25 µM.
On to `Cc1onc(-c2ccccc2Cl)c1C(=O)N1CCN(c2ccc([N+](=O)[O-])cc2Cl)CC1` [Compound 5, [4-(2-chloro-4-nitro-pheny1)-piperazin-1-yl]-[3-(2-chloro-phenyl)-5-methylisoxazol-4-yl]-methanone], for which the CC50 in the data set on MDCK cells and in the data set on Vero cells was over 250 µM each time. Besides, the EC50 with Influenza A H1N1\WSN\33 amounted to 0.04 µM.
As to `Cc1onc(-c2ccccc2Cl)c1C(=O)N1CCN(c2ccc([N+](=O)[O-])cc2Cl)CC1C` (centres unmarked) [Compound 6, [4-(2-chloro-4-nitro-phenyl)-2-methyl-piperazin-1-yl]-[3-(2-chloro-phenyl)-5-methyl-isoxazol-4-yl]-methanone], the CC50 at 24 h in data set [1] and in data set [2] was over 250 µM in each case. The “Selective Index (SI)” value in the data set on Influenza A H1N1\WSN\33 was over 1190. Also, the EC50 with Influenza A H1N1\WSN\33 (Influenza A virus, MDCK, 72 h) was found to be 0.21 µM.
For the compound `Cc1onc(-c2ccccc2)c1C(=O)N1CCN(c2ccc([N+](=O)[O-])cc2Cl)CC1C` (centres unmarked) [Compound 7, [4-(2-chloro-4-nitro-phenyl)-2-methyl-piperazin-1-yl]-[3-phenyl-5-methylisoxazol-4-yl]-methanone], the CC50 at 24 h in data set [1] and in data set [2] was over 250 µM throughout. Further, the “Selective Index (SI)” value with Influenza A H1N1\WSN\33 is on record as over 313. The EC50 with Influenza A H1N1\WSN\33 (Influenza A virus, MDCK, 72 h) is 0.8 µM.
Consider `Cc1onc(-c2ccccc2Cl)c1C(=O)N1CCN(c2ccc([N+](=O)[O-])cc2)CC1` [Compound 8, [4-(4-nitro-pheny1)-piperazin-1-yl]-[3-(2-chloro-phenyl)-5-methyl-isoxazol-4-yl]-methanone], for which the CC50 in the data set on MDCK cells and with Vero cells was over 250 µM throughout. Also, the EC50 with Influenza A H1N1\WSN\33 was found to be 5.1 µM.
Take `Cc1onc(-c2c(Cl)cccc2Cl)c1C(=O)N1CCN(c2ccc([N+](=O)[O-])cc2)CC1` [Compound 9, [4-(4-nitro-phenyl)-piperazin-1-yl]-[3-(2,6-dichloro-phenyl)-5-methyl-isoxazol-4-yl]-methanone]: the CC50 at 24 h in data set [1] and in data set [2] was over 250 µM throughout. Also, the “Selective Index (SI)” value with Influenza A H1N1\WSN\33 is given as over 21. For the same compound, the EC50 in the data set on Influenza A H1N1\WSN\33 (Influenza A virus, MDCK, 72 h) turned out to be 12 µM.
As to `Cc1onc(-c2ccccc2Cl)c1C(=O)N1CCN(c2c(Cl)cccc2[N+](=O)[O-])CC1` [Compound 10, [4-(2-nitro-6-chloro-phenyl)-piperazin-1-yl]-[3-(2-chloro-phenyl)-5-methyl-isoxazol-4-yl]-methanone], the CC50 at 24 h in data set [1] and in data set [2] was over 250 µM throughout. In addition, the “Selective Index (SI)” value in the data set with Influenza A H1N1\WSN\33 was over 10. Also, the EC50 in the data set with Influenza A H1N1\WSN\33 (Influenza A virus, MDCK, 72 h) worked out at 25 µM.
